The text below walks through data of EP1298214A2, “Plant thioesterases” (Calgene LLC, priority 1990, dated 1991).

In assay [1] the test system is Cuphea C10-preferring acyl-ACP thioesterase (preparation from Example 9C). In words: Acyl-ACP hydrolysis by the Cuphea preparation from Example 9C. Type of assay: biochemical, Cuphea hookeriana. Particulars: 0.5µM acyl-ACP, pH 9, 30°C for 60 min; corrected for non-enzymatic hydrolysis. How it is done: As a more preferred alternative to Example 9A or 9B, forty grams of polyvinylpolypyrrolidone (PVPP) are mixed with 550 ml "extraction buffer" comprising 200 mM bis-Tris-HCl pH 6., 10mM 2-mercaptoethanol, 1% (w/v) polyvinylpyrrolidone-10. To this mixture are added 40g frozen Cuphea seeds. The mixture is then blended in a Polytron homogenizer until no intact seeds remain and the slurry is smooth. This and all subsequent steps are conducted at 0-4°C. The preparation is centrifuged at 12,000xg for 20 min and further clarified by filtration through Miracloth.
This preparation is mixed with 100ml of settled hydroxyapatite which has been equilibrated with "buffer A" (50mM bis-Tris-HCl pH 6., […] 2-mercaptoethanol). Three extract volumes of 10mM 2-mercaptoethanol are then added slowly over 30 min, with constant stirring. The hydroxyapatite gel is collected on a sintered glass funnel and rinsed with buffer A until the effluent is colorless. The collected hydroxyapatite is then transferred to a column and further rinsed with buffer A at 2ml/min until the column is packed. A 400ml elution gradient is applied (2ml/min), from buffer A to buffer B (300mM potassium phosphate pH 6.9 in buffer A). Effluent fractions are assayed for hydrolysis of 10:0-ACP. Two overlapping peaks of activity are obtained. The fractions comprising the later-eluting peak are pooled and dialyzed against buffer A.
The dialyzed material is applied at 1.3ml/min to a 2.5 x 6.5cm column of Blue 4 Agarose (Sigma Chemical Co.; St. Louis, MO) equilibrated with buffer A. The column is washed with buffer A, and enzyme activity is subsequently eluted with a 400ml gradient from buffer A to buffer C (buffer A containing 1M NaCl). The eluted fractions contain three peaks of 10:0-ACP hydrolysis activity. Those fractions comprising the second peak to elute (eluted by approximately 0.4m NaCl) are pooled and dialyzed against buffer A. […]
The preparation from Example 9C is relatively selective in its hydrolysis of acyl-ACP thioesters, as shown in the following table: (These activities were determined as follows. Twenty five µl of sample were added to 75µl assay buffer comprising 100mM glycine-KOH pH 9, 0.2% (w/v) CHAPS, 10mM 2-mercaptoethanol, and containing radiolabeled acyl-ACP for a final concentration of 0.5µM. After incubation at 30°C for 60 min, the reaction was terminated by addition of 0.5ml 10% (v/v) acetic acid, and the liberated fatty acid product was extracted with 1ml diethyl ether. Enzyme activity was measured by the radioactivity of this ether extract, determined by liquid scintillation counting. […]

In assay [2] the test system is pET3a-THI0 E. coli lysate (truncated Bay 12:0-ACP thioesterase). Put plainly: Acyl-ACP hydrolysis by lysate of E. coli expressing truncated Bay thioesterase cDNA. Type of assay: biochemical, Umbellularia californica. Particulars: 1 hour induction with 1mM IPTG. How it is done: To assay for C12 thioesterase activity the following mixture is incubated at 30° for 30 min: "buffer" comprising 7mM KH2PO4-KOH pH 8, 20% v/v glycerol, 1mM dithiothreitol (DTT), 0.1% v/v Triton X100; sample to be tested for activity in the same or similar buffer as the "extraction buffer" described in Example 2; and 5µl of ^14C-radiolabeled lauroyl-ACP substrate for a total volume of 100µl and final lauroyl-ACP concentration of 0.5µM. Lauroyl-ACP substrate is prepared according to the method of Rock et al (Methods in Enzymology (1981) 72:397-403), using ACP prepared from Escherichia coli by the method of Rock and Cronan (Methods in Enzymology (1981) 71:341-351). The laurate is radiolabeled in the carboxylate group at a specific radioactivity of 50-60µCi/µmol.
Sequence of pET3a-THI0 E. coli lysate (truncated Bay 12:0-ACP thioesterase) (Q41635 143-382 limits assumed): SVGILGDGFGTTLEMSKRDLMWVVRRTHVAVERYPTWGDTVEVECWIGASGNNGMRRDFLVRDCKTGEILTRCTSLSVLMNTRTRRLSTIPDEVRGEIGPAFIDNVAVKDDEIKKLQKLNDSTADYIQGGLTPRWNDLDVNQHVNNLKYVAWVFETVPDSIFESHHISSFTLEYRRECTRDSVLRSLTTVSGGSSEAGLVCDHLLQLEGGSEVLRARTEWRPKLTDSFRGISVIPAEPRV
The reaction is stopped by adding 0.5ml cold (0°) 10% v/v acetic acid. The fatty acid product of the hydrolytic enzyme action is extracted away from the unhydrolyzed substrate by adding 1ml diethyl ether and mixing vigorously. After settling for a few minutes the upper ether layer is transferred to 5ml scintillation fluid for determination of radioactivity by liquid scintillation spectrometry. Additional ether extractions may be performed to recover remaining traces of the reaction product for more accurate quantitation of the enzyme activity if desired. The amount of ether-extracted radioactivity is a direct measure of C12-preferring acyl-ACP thioesterase activity, provided the amount of enzyme is not sufficient to hydrolyze more than about 25% of the substrate. With greater activity than this the relationship between radioactivity in the ether layer and the quantity of enzyme becomes markedly nonlinear. The enzyme preparation must then be diluted appropriately to bring the activity into the linear range of the assay.
A pET3a vector (Rosenberg, et al., Gene (1987) 56:125-135) is used in an E. coil strain BL21 (PE3) (Studier and Moffat, J. Mol. Biol. (1986) 189:113-130) host for this study. The pET3a vector contains a promoter and 33 bp of the 5' reading frame of bacteriophase T7. T7 polymerase is under the regulatory control of an isopropyl-b-D-thiogalactopyranoside (IPTG)-inducible lac UV5 promoter found in the E. coli BL21 (DE3) strain. Thus, by the addition of IPTG to E. coli BL21 (DE3) transformed with pET3a, the T7 promoter will be activated.
Constructs are prepared containing the truncated cDNA of Fig. 2 fused in reading frame by deletion of the BamHI/EcoRI fragment and replacement of the thioesterase sequence. E. coli are transformed with pET3a constructs containing the thioesterase (pET3a-THI0) and unmodified pET3a as a control. The E. coli are grown at 37°C in liquid medium and expression is induced by the addition of 1mM IPTG. […]

In assay [1], 14:0-ACP had an Activity of 30 cpm. For the same substance, the “Hydrolysis Activity (mean cpm in ether extract)” value (shortened to “Hydrolysis Activity”) in assay [2] came to 1035 cpm.

As for 16:0-ACP, the Activity in assay [1] is given as 262 cpm. For the same substance, the “Hydrolysis Activity” value in assay [2] is on record as 1900 cpm.

As to decanoyl-ACP [10:0-ACP], in assay [1], the Activity amounted to 1010 cpm. Besides, in assay [2], the “Hydrolysis Activity” value came out at 621 cpm.

lauroyl-ACP [12:0-ACP] displayed an Activity in assay [1] of 393 cpm. In addition, the “Hydrolysis Activity” value in assay [2] was 2127 cpm.
